For one experiment, the target named is T1, Adenosine receptor A2b (Homo sapiens, UniProt P29275).
T1 sequence (P29275 whole entry): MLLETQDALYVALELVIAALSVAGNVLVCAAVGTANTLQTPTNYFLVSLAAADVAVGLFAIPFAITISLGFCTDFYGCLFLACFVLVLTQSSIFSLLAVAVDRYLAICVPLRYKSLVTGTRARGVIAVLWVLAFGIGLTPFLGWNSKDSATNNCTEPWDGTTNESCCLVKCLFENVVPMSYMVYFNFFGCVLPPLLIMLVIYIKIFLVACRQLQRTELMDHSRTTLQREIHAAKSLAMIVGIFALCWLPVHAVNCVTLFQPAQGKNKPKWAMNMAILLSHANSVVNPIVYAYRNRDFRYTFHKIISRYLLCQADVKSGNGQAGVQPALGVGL

The target of the next experiment is T2, Adenosine receptor A1 (Homo sapiens, UniProt P30542).
T2 sequence (P30542 whole entry): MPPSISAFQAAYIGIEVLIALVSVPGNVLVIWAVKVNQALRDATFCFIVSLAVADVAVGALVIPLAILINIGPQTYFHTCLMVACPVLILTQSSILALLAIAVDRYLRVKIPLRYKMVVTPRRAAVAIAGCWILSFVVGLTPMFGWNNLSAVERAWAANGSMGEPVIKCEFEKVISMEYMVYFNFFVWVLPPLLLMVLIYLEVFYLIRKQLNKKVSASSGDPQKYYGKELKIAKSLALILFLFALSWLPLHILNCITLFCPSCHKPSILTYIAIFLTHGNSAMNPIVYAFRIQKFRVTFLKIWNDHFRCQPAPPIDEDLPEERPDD

The next experiment has as its target Adenosine receptor A2a (Homo sapiens, UniProt P29274).
The target in the next experiment is T3, Adenosine receptor A3 (Homo sapiens, UniProt P0DMS8).
T3 sequence (P0DMS8 whole entry): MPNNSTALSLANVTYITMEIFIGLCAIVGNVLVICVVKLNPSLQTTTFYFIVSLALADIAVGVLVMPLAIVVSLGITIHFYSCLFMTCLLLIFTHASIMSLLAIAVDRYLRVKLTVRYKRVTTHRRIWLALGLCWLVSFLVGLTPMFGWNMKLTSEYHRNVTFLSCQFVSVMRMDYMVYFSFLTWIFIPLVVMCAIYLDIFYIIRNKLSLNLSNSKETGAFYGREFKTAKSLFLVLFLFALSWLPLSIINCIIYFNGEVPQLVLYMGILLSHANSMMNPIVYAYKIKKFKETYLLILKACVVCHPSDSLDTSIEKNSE

pKi: −log10 of the molar value. Where “and” joins values, the source holds several entries; their conditions need not be identical. Equal values may be shown once. A value given as a limit tells only on which side of the number the result lay.

The term pKi denotes the Ki on a negative log10 scale, so that one unit is a factor of ten. Low readings indicate a high Ki, high ones a low Ki.

Sequence of Adenosine receptor A2a (P29274 whole entry): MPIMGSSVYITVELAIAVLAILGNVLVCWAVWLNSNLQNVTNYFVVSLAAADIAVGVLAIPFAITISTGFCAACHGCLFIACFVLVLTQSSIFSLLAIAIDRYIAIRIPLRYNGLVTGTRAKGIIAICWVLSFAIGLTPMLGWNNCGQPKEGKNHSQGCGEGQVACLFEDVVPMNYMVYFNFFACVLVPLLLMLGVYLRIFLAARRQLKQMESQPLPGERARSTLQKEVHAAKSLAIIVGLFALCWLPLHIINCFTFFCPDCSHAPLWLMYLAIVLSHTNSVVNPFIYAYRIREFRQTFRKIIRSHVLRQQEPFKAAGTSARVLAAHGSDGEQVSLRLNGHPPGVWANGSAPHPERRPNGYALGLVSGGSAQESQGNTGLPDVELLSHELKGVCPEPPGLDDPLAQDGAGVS

`Nc1nc(Cl)nc2c1ncn2[C@@H]1O[C@H](CO)[C@H](O)C1O` (stereo partly specified) [2-Chloroadenosine] showed a pKi on Adenosine receptor A2b below 5.00. On the same count and under the same terms, the result for `CCn1c(=O)c2[nH]c(-c3ccccc3)nc2n(CC)c1=O` [1,3-Diethyl-8-phenyl-3,7-dihydro-purine-2,6-dione] reads 7.91.

With `CCCn1c(=O)c2nc(-c3ccc(OCC(=O)O)cc3)[nH]c2n(Cc2ccc(N)c(I)c2)c1=O` [NSC_163889], the pKi was 7.15 at Adenosine receptor A1; 7.02 at Adenosine receptor A2a; 7.82 at Adenosine receptor A3; 7.40 and 7.52 on Adenosine receptor A2b. Regarding `CCCn1c(=O)c2[nH]c(-c3ccc(C=CC(=O)O)cc3)nc2n(CCC)c1=O` [NSC_129447], at Adenosine receptor A2b, the negative-log Ki (pKi) is 7.29. Compound `CCCn1c(=O)c2nc[nH]c2n(CCC)c1=O` showed a pKi at Adenosine receptor A3 of 6.29. At Adenosine receptor A2b, `CCNC(=O)C(=O)Nc1nc(Nc2ccccc2)c2ncn([C@@H]3O[C@H](CO)[C@@H](O)[C@H]3O)c2n1` [AB-NECA] gave a pKi below 5.00. Compound `CCCn1c(=O)[nH]c(=O)c2[nH]cnc21` [3-Propylxanthine (enprofylline)] showed a pKi at Adenosine receptor A1 below 5.00. In turn, `Nc1ccc(CCNc2nc(N)c3ncn(C4OC(CO)C(O)C4O)c3n2)cc1I` (stereo unspecified) [CAS_190964] showed a pKi at Adenosine receptor A2b below 5.00.

Source of the values: BindingDB's records for PubMed 10496952 (University of Virginia, 1999).
